# pIC50: −log10 of the molar value.
# Molecular target: T1, human PKCθ full length enzyme (Homo sapiens, UniProt Q04759)
# T1 construct: human PKCθ full length enzyme (Panvera Cat# P2996); purchased Panvera P2996
# Assay: PKCθ IMAP assay (fluorescence polarization)
# Type: biochemical
# Details: human PKCθ full length enzyme, IMAP; average value; read-out: IC50 PKCθ IMAP
# T1 sequence (Q04759 whole entry): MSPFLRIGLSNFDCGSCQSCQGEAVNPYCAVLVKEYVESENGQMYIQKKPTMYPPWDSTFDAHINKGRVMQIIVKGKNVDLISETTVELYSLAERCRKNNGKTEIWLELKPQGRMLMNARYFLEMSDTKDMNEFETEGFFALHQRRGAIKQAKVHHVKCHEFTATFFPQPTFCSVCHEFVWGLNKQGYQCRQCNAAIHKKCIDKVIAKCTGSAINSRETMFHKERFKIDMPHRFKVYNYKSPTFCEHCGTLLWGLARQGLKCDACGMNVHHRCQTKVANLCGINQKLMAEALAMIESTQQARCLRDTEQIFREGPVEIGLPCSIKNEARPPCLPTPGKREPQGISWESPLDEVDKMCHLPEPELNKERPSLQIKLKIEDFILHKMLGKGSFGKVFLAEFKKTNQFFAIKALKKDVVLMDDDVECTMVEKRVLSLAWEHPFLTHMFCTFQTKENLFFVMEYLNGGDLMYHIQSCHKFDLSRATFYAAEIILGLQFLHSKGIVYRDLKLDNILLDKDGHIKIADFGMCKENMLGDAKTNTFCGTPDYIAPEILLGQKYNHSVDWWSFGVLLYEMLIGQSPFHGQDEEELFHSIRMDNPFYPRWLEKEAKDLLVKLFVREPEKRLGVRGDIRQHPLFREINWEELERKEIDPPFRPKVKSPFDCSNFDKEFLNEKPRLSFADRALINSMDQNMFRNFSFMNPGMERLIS
row,Compound,pIC50
1,"COCCOc1ccc(-c2cncc(C#N)c2Nc2cnc3[nH]ccc3c2Cl)cc1OC [Compound 492, 4-[(4-chloro-1H-pyrrolo[2,3-b]pyridin-5-yl)amino]-5-[3-methoxy-4-(2-methoxyethoxy)phenyl]nicotinonitrile]",7.21
2,"COc1ccc(-c2cncc(C#N)c2NCCN2CCN(C)CC2)cc1OC [Compound 439, 5-(3,4-dimethoxyphenyl)-4-{[2-(4-methylpiperazin-1-yl)ethyl]amino}nicotinonitrile]",5.23
3,"Cc1c(Nc2c(C#N)cncc2-c2cncn2C)ccc2[nH]ccc12 [Compound 564, 5-(1-methyl-1H-imidazol-5-yl)-4-[(4-methyl-1H-indol-5-yl)amino]nicotinonitrile]",7.01
4,"Cc1c(Nc2c(C#N)cncc2-c2cc3cc(CO)ccc3s2)ccc2[nH]ccc12 [Compound 229, 5-[5-(hydroxymethyl)-1-benzothien-2-yl]-4-[(4-methyl-1H-indol-5-yl)amino]nicotinonitrile]",8.10
5,"N#Cc1cncc(-c2cccc(-c3ccc(N)cc3)c2)c1Nc1ccc2[nH]ccc2c1 [Compound 119, 5-(4′-aminobiphenyl-3-yl)-4-(1H-indol-5-ylamino)nicotinonitrile]",6.52
6,"COc1cccc(-c2cncc(C#N)c2Nc2ccc3cn[nH]c3c2)c1 [Compound 296, 4-(1H-indazol-6-ylamino)-5-(3-methoxyphenyl)nicotinonitrile]",4.79
7,5-(1-benzofuran-3-yl)-4-(1H-indol-4-ylamino)nicotinonitrile [Compound 352],7.70
8,"Cc1c(Nc2c(C#N)cncc2-c2ccc(OCCNCc3ccncc3)cc2)ccc2[nH]ccc12 [Compound 434, 4-[(4-methyl-1H-indol-5-yl)amino]-5-(4-{2-[(pyridin-4-ylmethyl)amino]ethoxy}phenyl)nicotinonitrile]",7.85
9,"N#Cc1cncc(-c2cccc(-c3ccc(C(=O)NCCCCO)cc3)c2)c1Nc1ccc2[nH]ccc2c1 [Compound 209, 3′-[5-cyano-4-(1H-indol-5-ylamino)pyridin-3-yl]-N-(4-hydroxybutyl)biphenyl-4-carboxamide]",6.55
10,"N#Cc1cncc(-c2ccc(Br)cc2)c1Nc1ccc2[nH]ccc2c1 [Compound 116, 5-(4-bromophenyl)-4-(1H-indol-5-ylamino)nicotinonitrile]",7.15
11,"CC(=O)Nc1ccc(-c2cncc(C#N)c2Nc2ccc3[nH]ccc3c2C)cc1 [Compound 576, N-(4-{5-cyano-4-[(4-methyl-1H-indol-5-yl)amino]pyridin-3-yl}phenyl)acetamide]",7.14
12,"N#Cc1cncc(-c2ccc3[nH]ccc3c2)c1Nc1ccc2[nH]ccc2c1 [Compound 263, 5-(1H-indol-5-yl)-4-(1H-indol-5-ylamino)nicotinonitrile]",7.30
13,"COc1cc(-c2cncc(C#N)c2Nc2ccc3[nH]ccc3c2C)ccc1OCCN(C)C [Compound 345, 5-{4-[2-(dimethylamino)ethoxy]-3-methoxyphenyl}-4-[(4-methyl-1H-indol-5-yl)amino]nicotinonitrile]",8.15
14,"COc1ccc(-c2cncc(C#N)c2Nc2ccc3[nH]ccc3c2)cc1OCCNCc1ccncc1 [Compound 240, 4-(1H-indol-5-ylamino)-5-(4-methoxy-3-{2-[(pyridin-4-ylmethyl)amino]ethoxy}phenyl)nicotinonitrile]",7.10
15,"Cc1c(Nc2c(C#N)cncc2-c2cc3cc(CN4CCN(c5ccccn5)CC4)ccc3o2)ccc2[nH]ccc12 [Compound 397, 4-[(4-methyl-1H-indol-5-yl)amino]-5-{5-[(4-pyridin-2-ylpiperazin-1-yl)methyl]-1-benzofuran-2-yl}nicotinonitrile]",7.89
16,"N#Cc1cncc(-c2ccoc2)c1Nc1ccc2[nH]ccc2c1 [Compound 262, 5-(3-furyl)-4-(1H-indol-5-ylamino)nicotinonitrile]",6.92
17,"Cc1c(Nc2c(C#N)cncc2-c2ccc(CN3CCN(C4CCCC4)CC3)o2)ccc2[nH]ccc12 [Compound 486, 5-{5-[(4-cyclopentylpiperazin-1-yl)methyl]-2-furyl}-4-[(4-methyl-1H-indol-5-yl)amino]nicotinonitrile]",8.40
18,"COc1ccc(-c2cncc(C#N)c2Nc2ccc3c(c2)CCC3)cc1OC [Compound 107, 4-(2,3-dihydro-1H-inden-5-ylamino)-5-(3,4-dimethoxyphenyl)nicotinonitrile]",5.03
19,"COc1cccc(-c2cncc(C#N)c2Nc2ccc3[nH]ncc3c2)c1 [Compound 295, 4-(1H-indazol-5-ylamino)-5-(3-methoxyphenyl)nicotinonitrile]",5.53
20,"COc1ccc(-c2cncc(C#N)c2NCC2CCN(C)CC2)cc1OC [Compound 448, 5-(3,4-dimethoxyphenyl)-4-{[(1-methylpiperidin-4-yl)methyl]amino}nicotinonitrile]",4.85
21,"Cc1c(Nc2c(C#N)cncc2-c2cnc(N(C)C)nc2)ccc2[nH]ccc12 [Compound 513, 5-[2-(dimethylamino)pyrimidin-5-yl]-4-[(4-methyl-1H-indol-5-yl)amino]nicotinonitrile]",6.90
22,"COc1ccc(-c2cncc(C#N)c2Nc2ccc3[nH]ccc3c2)cc1-c1ccc(C(=O)NC2CCCC2)cc1 [Compound 192, 5′-[5-cyano-4-(1H-indol-5-ylamino)pyridin-3-yl]-N-cyclopentyl-2′-methoxybiphenyl-4-carboxamide]",6.55
23,"COc1ccc(-c2cncc(C#N)c2Nc2ccc3[nH]ccc3c2)cc1OCCNCCCc1ccccc1 [Compound 250, 4-(1H-indol-5-ylamino)-5-(4-methoxy-3-{2-[(3-phenylpropyl)amino]ethoxy}phenyl)nicotinonitrile]",7.70

# Now from value to compound:
row,pIC50,Compound
1,7.71,"Cc1c(Nc2c(C#N)cncc2-c2ccc3occc3c2)ccc2[nH]ccc12 [Compound 591, 5-(1-benzofuran-5-yl)-4-[(4-methyl-1H-indol-5-yl)amino]nicotinonitrile]"
2,8.70,"COCCCNCc1ccc2sc(-c3cncc(C#N)c3Nc3cccc4[nH]ccc34)cc2c1 [Compound 276, 4-(1H-indol-4-ylamino)-5-(5-{[(3-methoxypropyl)amino]methyl}-1-benzothien-2-yl)nicotinonitrile]"
3,7.64,"Cc1c(Nc2c(C#N)cncc2-c2cccc3ccccc23)ccc2[nH]ccc12 [Compound 581, 4-[(4-methyl-1H-indol-5-yl)amino]-5-(1-naphthyl)nicotinonitrile]"
4,8.70,"N#Cc1cncc(-c2cc3cc(CNC(=O)CCN)ccc3s2)c1Nc1cccc2[nH]ccc12 [Compound 360, N-({2-[5-cyano-4-(1H-indol-4-ylamino)pyridin-3-yl]-1-benzothien-5-yl}methyl)-b-alaninamide]"
5,7.51,"Cc1c(Nc2c(C#N)cncc2-c2ccnc(Cl)c2)ccc2[nH]ccc12 [Compound 469, 2′-chloro-4-[(4-methyl-1H-indol-5-yl)amino]-3,4′-bipyridine-5-carbonitrile]"
6,7.40,"N#Cc1cncc(-c2cccc(-c3ccc(C(=O)NC4CCCC4)cc3)c2)c1Nc1cccc2[nH]ccc12 [Compound 148, 3′-[5-cyano-4-(1H-indol-4-ylamino)pyridin-3-yl]-N-cyclopentylbiphenyl-4-carboxamide]"
7,7.85,"Cc1c(Nc2c(C#N)cncc2-c2ccc(OCCN3CCN(CCO)CC3)cc2)ccc2[nH]ccc12 [Compound 427, 5-(4-{2-[4-(2-hydroxyethyl)piperazin-1-yl]ethoxy}phenyl)-4-[(4-methyl-1H-indol-5-yl)amino]nicotinonitrile]"
8,7.70,"N#Cc1cncc(-c2cccc(OC[C@@H](N)Cc3ccccc3)c2)c1Nc1cccc2[nH]ccc12 [Compound 366, 5-(3-{[(2S)-2-amino-3-phenylpropyl]oxy}phenyl)-4-(1H-indol-4-ylamino)nicotinonitrile]"
9,8.30,"N#Cc1cncc(-c2ccc(O)cc2)c1Nc1cccc2[nH]ccc12 [Compound 225, 5-(4-hydroxyphenyl)-4-(1H-indol-4-ylamino)nicotinonitrile]"
10,7.70,"Cc1c(Nc2c(C#N)cncc2-c2ccc(OCCN3CCOCC3)cc2)ccc2[nH]ccc12 [Compound 351, 4-[(4-methyl-1H-indol-5-yl)amino]-5-[4-(2-morpholin-4-ylethoxy)phenyl]nicotinonitrile]"
11,7.44,"Cc1c(Nc2c(C#N)cncc2-c2ccncc2)ccc2[nH]ccc12 [Compound 467, 4-[(4-methyl-1H-indol-5-yl)amino]-3,4′-bipyridine-5-carbonitrile]"
12,7.70,"CS(=O)(=O)Nc1cccc(-c2cncc(C#N)c2Nc2cccc3[nH]ccc23)c1 [Compound 256, N-{3-[5-cyano-4-(1H-indol-4-ylamino)pyridin-3-yl]phenyl}methanesulfonamide]"
13,8.70,"N#Cc1cncc(-c2cc3cc(CNCCO)ccc3s2)c1Nc1cccc2[nH]ccc12 [Compound 274, 5-(5-{[(2-hydroxyethyl)amino]methyl}-1-benzothien-2-yl)-4-(1H-indol-4-ylamino)nicotinonitrile]"
14,7.30,"N#Cc1cncc(-c2cccc(Br)c2)c1Nc1ccc2[nH]ccc2c1 [Compound 113, 5-(3-bromophenyl)-4-(1H-indol-5-ylamino)nicotinonitrile]"
15,7.66,"Cc1c(Nc2c(C#N)cncc2-c2ccoc2)ccc2[nH]ccc12 [Compound 563, 5-(3-furyl)-4-[(4-methyl-1H-indol-5-yl)amino]nicotinonitrile]"
16,7.00,"CN(C)Cc1cccc(-c2cncc(C#N)c2Nc2cccc3[nH]ccc23)c1 [Compound 271, 5-{3-[(dimethylamino)methyl]phenyl}-4-(1H-indol-4-ylamino)nicotinonitrile]"
17,7.24,"Cc1c(Nc2c(C#N)cncc2-c2ccccc2N)ccc2[nH]ccc12 [Compound 573, 5-(2-aminophenyl)-4-[(4-methyl-1H-indol-5-yl)amino]nicotinonitrile]"
18,8.30,"Cc1c(Nc2c(C#N)cncc2-c2ccc(CN3CCC(N4CCCCC4)CC3)o2)ccc2[nH]ccc12 [Compound 403, 5-[5-(1,4′-bipiperidin-1′-ylmethyl)-2-furyl]-4-[(4-methyl-1H-indol-5-yl)amino]nicotinonitrile]"
19,7.30,"N#Cc1cncc(-c2cccc(OCCN3CCCCC3)c2)c1Nc1cccc2[nH]ccc12 [Compound 171, 4-(1H-indol-4-ylamino)-5-[3-(2-piperidin-1-ylethoxy)phenyl]nicotinonitrile]"

# Source: US7781591B2, “Substituted 3-cyanopyridines as protein kinase inhibitors” (Wyeth LLC, priority 2006, dated 2010)
